Source: ChEMBL document CHEMBL5380869, “Discovery of an Oral, Beyond-Rule-of-Five Mcl-1 Protein-Protein Interaction Modulator with the Potential of Treating Hematological Malignancies” (J Med Chem, 2023)
Values after ≈ are worked out from the molar mass of the structure shown.

Key:
[1] = Inhibition of terbium-labelled Mcl-1 (unknown origin)/Bim BH3 peptide (H3N-(C/Cy5Mal)-WIAQELRRIGDEFN-OH) (unknown origin) interaction assessed as displacement of Cy5-labeled Bim BH3 peptide by TR-HTRF assay
MOLP-8 = assay: Induction apoptosis in human MOLP8 cells assessed as cell killing measured after 2 hrs by Caspase-Glo 3/7 Assay; type: functional, cell-based; conditions: MOLP-8, 2 h
[2] = Thermodynamic (equilibrium) solubility of the compound measured after 3 days agitation in pH 2 buffer by LC-MS/MS analysis; type: physicochemical; conditions: time 3 day, read-out: Therm_solubility
[3] = Thermodynamic (equilibrium) solubility of the compound measured after 3 days agitation in pH 7 buffer by LC-MS/MS analysis; type: physicochemical; conditions: time 3 day, read-out: Therm_solubility
[4] = Lipophilicity, CHI logD of compound at pH 2.6 by UPLC-TOF analysis; type: physicochemical; conditions: buffer
[5] = Intrinsic clearance in human liver microsomes measured upto 60 mins by LC-MS/MS analysis; type: ADME, Microsome; conditions: read-out: CLH
[6] = Intrinsic clearance in mouse liver microsomes measured upto 60 mins by LC-MS/MS analysis; type: ADME, Microsome; conditions: read-out: CLH
[7] = Lipophilicity, CHI logP of compound at pH 7.4 by UPLC-TOF analysis; type: physicochemical; conditions: buffer, read-out: logP
[8] = Cardiotoxicity risk in human iPSC-CM assessed as calcium transients at 1 uM by CTCM assay; type: toxicity, cell-based
[9] = Cardiotoxicity risk in human iPSC-CM assessed as calcium transients at 10 uM by CTCM assay; type: toxicity, cell-based
[10] = Cardiotoxicity risk in human iPSC-CM assessed as calcium transients at 3 uM by CTCM assay; type: toxicity, cell-based
[11] = Fraction unbound in human plasma at 5 uM incubated for 4.5 hrs by rapid equilibrium dialysis; type: ADME, cell-free
[12] = Fraction unbound in mouse plasma at 5 uM incubated for 4.5 hrs by rapid equilibrium dialysis; type: ADME, cell-free
Cytochrome P450 1A2 = target: T1, Cytochrome P450 1A2 (Homo sapiens, UniProt P05177); assay: Inhibition of human CYP1A2 assessed as fluorescent metabolites by CYP450 inhibition assay; type: ADME
T1 sequence (P05177 whole entry): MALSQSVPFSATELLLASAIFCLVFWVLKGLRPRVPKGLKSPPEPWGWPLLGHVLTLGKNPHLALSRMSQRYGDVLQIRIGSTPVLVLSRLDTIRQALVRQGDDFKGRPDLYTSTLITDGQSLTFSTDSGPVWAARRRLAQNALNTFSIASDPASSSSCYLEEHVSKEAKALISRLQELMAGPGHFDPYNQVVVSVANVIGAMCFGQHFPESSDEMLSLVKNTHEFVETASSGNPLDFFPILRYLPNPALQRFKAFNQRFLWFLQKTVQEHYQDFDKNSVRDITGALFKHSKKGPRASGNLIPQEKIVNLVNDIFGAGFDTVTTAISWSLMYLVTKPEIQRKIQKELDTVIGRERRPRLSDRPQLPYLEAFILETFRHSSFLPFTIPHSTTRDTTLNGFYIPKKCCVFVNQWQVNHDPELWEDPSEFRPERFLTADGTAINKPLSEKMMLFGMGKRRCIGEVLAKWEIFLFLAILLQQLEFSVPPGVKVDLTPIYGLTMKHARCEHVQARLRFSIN

Cytochrome P450 2C19 = Cytochrome P450 2C19 (Homo sapiens, UniProt P33261); assay: Inhibition of human CYP2C19 assessed as fluorescent metabolites by CYP450 inhibition assay; type: ADME
Sequence of Cytochrome P450 2C19 (P33261 whole entry): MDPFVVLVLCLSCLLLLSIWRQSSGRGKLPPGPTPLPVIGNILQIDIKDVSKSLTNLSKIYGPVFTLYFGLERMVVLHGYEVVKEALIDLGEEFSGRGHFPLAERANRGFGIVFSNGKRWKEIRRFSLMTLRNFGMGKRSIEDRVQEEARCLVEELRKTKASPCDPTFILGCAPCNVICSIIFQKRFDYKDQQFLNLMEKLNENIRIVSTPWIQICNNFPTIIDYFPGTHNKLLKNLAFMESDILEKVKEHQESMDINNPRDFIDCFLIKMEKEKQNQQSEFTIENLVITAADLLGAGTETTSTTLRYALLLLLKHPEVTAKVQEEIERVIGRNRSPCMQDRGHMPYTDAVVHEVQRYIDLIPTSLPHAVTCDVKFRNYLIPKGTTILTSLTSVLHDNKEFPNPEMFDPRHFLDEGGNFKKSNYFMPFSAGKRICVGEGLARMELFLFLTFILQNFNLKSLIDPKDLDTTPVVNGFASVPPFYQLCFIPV

Cytochrome P450 2C9 = Cytochrome P450 2C9 (Homo sapiens, UniProt P11712); assay: Inhibition of human CYP2C9 assessed as fluorescent metabolites by CYP450 inhibition assay; type: ADME
Sequence of Cytochrome P450 2C9 (P11712 whole entry): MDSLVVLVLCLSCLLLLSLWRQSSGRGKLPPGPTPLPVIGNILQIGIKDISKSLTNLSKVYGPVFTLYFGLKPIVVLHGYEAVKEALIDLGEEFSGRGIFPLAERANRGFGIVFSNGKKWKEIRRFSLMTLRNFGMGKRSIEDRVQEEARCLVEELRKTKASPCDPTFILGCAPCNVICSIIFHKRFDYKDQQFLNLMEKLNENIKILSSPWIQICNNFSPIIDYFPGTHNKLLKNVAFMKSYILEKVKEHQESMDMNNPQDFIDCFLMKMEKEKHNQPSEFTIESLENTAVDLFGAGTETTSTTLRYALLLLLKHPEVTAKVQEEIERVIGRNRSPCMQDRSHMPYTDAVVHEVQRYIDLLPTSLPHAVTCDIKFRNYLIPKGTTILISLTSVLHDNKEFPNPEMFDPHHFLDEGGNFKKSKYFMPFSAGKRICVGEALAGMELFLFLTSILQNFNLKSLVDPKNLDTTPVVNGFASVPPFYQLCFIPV

Cytochrome P450 2D6 = Cytochrome P450 2D6 (Homo sapiens, UniProt P10635); assay: Inhibition of human CYP2D6 assessed as fluorescent metabolites by CYP450 inhibition assay; type: ADME
Sequence of Cytochrome P450 2D6 (P10635 whole entry): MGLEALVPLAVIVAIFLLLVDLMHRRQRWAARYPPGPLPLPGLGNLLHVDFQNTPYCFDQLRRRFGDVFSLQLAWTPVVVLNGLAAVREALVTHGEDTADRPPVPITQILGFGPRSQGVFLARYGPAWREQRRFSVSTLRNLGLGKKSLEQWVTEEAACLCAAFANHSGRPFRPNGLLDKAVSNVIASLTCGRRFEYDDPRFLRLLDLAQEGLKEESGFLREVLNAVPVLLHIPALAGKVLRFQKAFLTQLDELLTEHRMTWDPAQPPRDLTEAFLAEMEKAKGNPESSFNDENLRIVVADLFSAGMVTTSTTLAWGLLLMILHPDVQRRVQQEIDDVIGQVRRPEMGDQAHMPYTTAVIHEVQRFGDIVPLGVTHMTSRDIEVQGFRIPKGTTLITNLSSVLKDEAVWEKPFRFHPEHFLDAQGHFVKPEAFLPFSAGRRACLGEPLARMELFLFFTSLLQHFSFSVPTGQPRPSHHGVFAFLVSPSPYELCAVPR

[13] = Lipophilicity, CHI logD of compound at pH 7.4 by UPLC-TOF analysis; type: physicochemical; conditions: buffer
Cytochrome P450 2C8 = target: T2, Cytochrome P450 2C8 (Homo sapiens, UniProt P10632); assay: Inhibition of human CYP2C8 assessed as fluorescent metabolites by CYP450 inhibition assay; type: ADME
T2 sequence (P10632 whole entry): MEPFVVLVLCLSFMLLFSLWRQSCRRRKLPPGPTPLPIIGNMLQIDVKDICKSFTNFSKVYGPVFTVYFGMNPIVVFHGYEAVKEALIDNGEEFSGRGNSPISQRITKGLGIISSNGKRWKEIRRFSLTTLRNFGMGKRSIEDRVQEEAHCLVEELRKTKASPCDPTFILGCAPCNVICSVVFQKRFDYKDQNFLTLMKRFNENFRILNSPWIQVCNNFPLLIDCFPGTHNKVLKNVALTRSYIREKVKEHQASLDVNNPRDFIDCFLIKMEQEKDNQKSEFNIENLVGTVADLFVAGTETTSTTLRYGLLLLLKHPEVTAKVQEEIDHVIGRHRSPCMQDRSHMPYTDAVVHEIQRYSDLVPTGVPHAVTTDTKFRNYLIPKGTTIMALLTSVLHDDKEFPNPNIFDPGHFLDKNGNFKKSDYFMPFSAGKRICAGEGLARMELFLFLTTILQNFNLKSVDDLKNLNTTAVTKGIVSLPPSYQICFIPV

| Ki [1] [nM] | solubility thermodynamic at 72 h [2] [µM] | solubility thermodynamic at 72 h [3] [µM] | chromatographic logD [4] | microsomal CLint [5] [µL/min/mg] | microsomal CLint [6] [µL/min/mg] | chromatographic logD [7] | Fu [11] [%] | Fu [12] [%] | inhibition (INH) (Cytochrome P450 1A2) | inhibition (INH) (Cytochrome P450 2C19) | inhibition (INH) (Cytochrome P450 2C9) | inhibition (INH) (Cytochrome P450 2D6) | chromatographic logD [13] | IC50 (Cytochrome P450 2C8) [nM] | Structure (SMILES) | AC50 (MOLP-8) [nM] | Activity [8] | Activity [9] | Activity [10] |
| --- | --- | --- | --- | --- | --- | --- | --- | --- | --- | --- | --- | --- | --- | --- | --- | --- | --- | --- | --- |
| 0.13 | 516 (≈ 414 µg/mL) | < 0.1 | 3.4 | < 7.7 | 22 | 3.3 | – | – | – | – | – | – | – | – | CO[C@@]1(CN2CCN3CCOC[C@@H]3C2)/C(F)=C/C[C@H](C)[C@H](C)S(=O)(=O)NC(=O)c2ccc3c(c2)N(C[C@@H]2CCO[C@H]21)C[C@@]1(CCCc2cc(Cl)ccc21)CO3 | 992 | Non-Toxic | Toxic | Non-Toxic |
| 0.014 | 69 (≈ 55.3 µg/mL) | 110 (≈ 88.2 µg/mL) | 2.5 | 19 | < 7.7 | 2.9 | 0.16 | 0.13 | Not Active | Not Active | Not Active | Not Active | – | – | CO[C@@]1(CN2CCN3CCOC[C@@H]3C2)/C(F)=C/C[C@H](C)[C@@H](C)S(=O)(=O)NC(=O)c2ccc3c(c2)N(C[C@@H]2CCO[C@H]21)C[C@@]1(CCCc2cc(Cl)ccc21)CO3 | 138 | Non-Toxic | – | Non-Toxic |
| 0.22 | 95 (≈ 74.6 µg/mL) | < 0.1 | 2.5 | < 7.7 | < 7.7 | 2.9 | – | – | – | – | – | – | – | – | C[C@@H]1[C@@H](C)C/C=C(\F)[C@@](O)(CN2CCN3CCCC[C@@H]3C2)[C@@H]2OCC[C@H]2CN2C[C@@]3(CCCc4cc(Cl)ccc43)COc3ccc(cc32)C(=O)NS1(=O)=O | 2660 | – | – | – |
| 0.015 | < 0.5 | 508 (≈ 386 µg/mL) | – | 81 | > 347 | – | 0.08 | 0.03 | Not Active | Not Active | Not Active | Not Active | 2.4 | 501 | COCCOCCn1nc(C)c2c1CSCc1cc(n(C)n1)CSc1cc(c3ccccc3c1)OCCCn1c(C(=O)O)c(C)c3c-2c(Cl)ccc31 | 12 | Non-Toxic | – | Non-Toxic |
| 0.23 | 521 (≈ 379 µg/mL) | 0.4 (≈ 0.291 µg/mL) | 2.3 | 34 | 14 | – | – | – | – | – | – | – | 2.7 | – | C[C@@H]1[C@@H](C)C/C=C/[C@H](OCCN2CCOCC2)[C@@H]2OCC[C@H]2CN2C[C@@]3(CCCc4cc(Cl)ccc43)COc3ccc(cc32)C(=O)NS1(=O)=O | 616 | Non-Toxic | Non-Toxic | Non-Toxic |
| 0.18 | < 0.1 | < 0.1 | – | < 7.7 | < 7.7 | – | – | – | – | – | – | – | 3.6 | – | C[C@@H]1[C@@H](C)C/C=C(\F)[C@@](O)(CC(=O)N(C)C)[C@@H]2OCC[C@H]2CN2C[C@@]3(CCCc4cc(Cl)ccc43)COc3ccc(cc32)C(=O)NS1(=O)=O | 436 | Non-Toxic | – | Non-Toxic |
| 0.025 | < 0.1 | 0.6 (≈ 0.462 µg/mL) | – | < 7.7 | 16 | – | – | – | – | – | – | – | 3.1 | – | COc1nn(C)cc1C(=O)N[S@]1(=O)=NC(=O)c2ccc3c(c2)N(C[C@@H]2CCO[C@H]2[C@H](OC)/C(F)=C/C[C@H](C)C1)C[C@@]1(CCCc2cc(Cl)ccc21)CO3 | 486 | Non-Toxic | Non-Toxic | Non-Toxic |
| 0.096 | 518 (≈ 410 µg/mL) | 1.1 (≈ 0.872 µg/mL) | 3 | < 7.7 | 28 | 3.9 | – | – | – | – | – | – | – | – | COCCN(CCOC)C[C@]1(OC)/C(F)=C/C[C@H](C)[C@@H](C)S(=O)(=O)NC(=O)c2ccc3c(c2)N(C[C@@H]2CCO[C@H]21)C[C@@]1(CCCc2cc(Cl)ccc21)CO3 | 412 | – | – | – |
| 0.088 | 44 (≈ 35.3 µg/mL) | < 0.1 | 2.8 | 11 | 21 | 3.5 | – | – | – | – | – | – | – | – | CO[C@]1(CN2CCN3CCOC[C@@H]3C2)/C(F)=C/C[C@H](C)[C@@H](C)S(=O)(=O)NC(=O)c2ccc3c(c2)N(C[C@@H]2CCO[C@H]21)C[C@@]1(CCCc2cc(Cl)ccc21)CO3 | 163 | Non-Toxic | Toxic | Non-Toxic |
| 0.15 | 40 (≈ 32 µg/mL) | 102 (≈ 81.5 µg/mL) | 2.5 | < 7.7 | < 7.7 | 3 | – | – | – | – | – | – | – | – | CO[C@@]1(CN2CCN3CCCC[C@@H]3C2)/C(F)=C/C[C@H](C)[C@@H](C)S(=O)(=O)NC(=O)c2ccc3c(c2)N(C[C@@H]2CCO[C@H]21)C[C@@]1(CCCc2cc(Cl)ccc21)CO3 | 1860 | – | – | – |
| 0.17 | 480 (≈ 444 µg/mL) | 25 (≈ 23.1 µg/mL) | – | < 7.7 | < 7.7 | – | – | – | – | – | – | – | 3 | – | COc1nn(C)cc1C(=O)N[S@]1(=O)=NC(=O)c2ccc3c(c2)N(C[C@@H]2CCO[C@H]2[C@](CN2CCN4CCOC[C@@H]4C2)(OC)/C(F)=C/C[C@H](C)C1)C[C@@]1(CCCc2cc(Cl)ccc21)CO3 | 702 | Non-Toxic | Non-Toxic | Non-Toxic |
| 0.023 | 0.27 (≈ 0.203 µg/mL) | 172 (≈ 129 µg/mL) | – | < 7.7 | < 7.7 | – | – | – | – | – | – | – | 2.9 | – | COc1nn(C)cc1C(=O)N[S@@]1(=O)=NC(=O)c2ccc3c(c2)N(C[C@@H]2CCO[C@H]2[C@@H](OC)/C=C/C[C@H](C)C1)C[C@@]1(CCCc2cc(Cl)ccc21)CO3 | 76.1 | Non-Toxic | Non-Toxic | Non-Toxic |
| 0.19 | 539 (≈ 402 µg/mL) | 1.2 (≈ 0.896 µg/mL) | 2.5 | 62 | 34 | – | – | – | – | – | – | – | 2.7 | – | C[C@@H]1[C@@H](C)C/C=C(\F)[C@H](OCCN2CCOCC2)[C@@H]2OCC[C@H]2CN2C[C@@]3(CCCc4cc(Cl)ccc43)COc3ccc(cc32)C(=O)NS1(=O)=O | 314 | Non-Toxic | Non-Toxic | Non-Toxic |
